Source: paper PMC9103942, “A Tumor-Homing Peptide Platform Enhances Drug Solubility, Improves Blood–Brain Barrier Permeability and Targets Glioblastoma” (Cancers, 2022)

Experiments:
[1] = Serum stability, human serum; assay type: in vitro ADME; settings: 25% human serum; for half-life at 70 µM: human, LC-MS, normalized to EIC at t = 0
[2] = parameters: method as in PMID 33997269; settings: cited from earlier work
[3] = target: T1, recombinant dg-Bcan protein (Homo sapiens, UniProt Q96GW7); experiment: Octet binding kinetic analysis (steady state) to recombinant dg-Bcan; settings: one site specific binding fit, Octet RED
T1 construct: purchased R&D Systems 4009-BC-050
T1 sequence (Q96GW7 23-911): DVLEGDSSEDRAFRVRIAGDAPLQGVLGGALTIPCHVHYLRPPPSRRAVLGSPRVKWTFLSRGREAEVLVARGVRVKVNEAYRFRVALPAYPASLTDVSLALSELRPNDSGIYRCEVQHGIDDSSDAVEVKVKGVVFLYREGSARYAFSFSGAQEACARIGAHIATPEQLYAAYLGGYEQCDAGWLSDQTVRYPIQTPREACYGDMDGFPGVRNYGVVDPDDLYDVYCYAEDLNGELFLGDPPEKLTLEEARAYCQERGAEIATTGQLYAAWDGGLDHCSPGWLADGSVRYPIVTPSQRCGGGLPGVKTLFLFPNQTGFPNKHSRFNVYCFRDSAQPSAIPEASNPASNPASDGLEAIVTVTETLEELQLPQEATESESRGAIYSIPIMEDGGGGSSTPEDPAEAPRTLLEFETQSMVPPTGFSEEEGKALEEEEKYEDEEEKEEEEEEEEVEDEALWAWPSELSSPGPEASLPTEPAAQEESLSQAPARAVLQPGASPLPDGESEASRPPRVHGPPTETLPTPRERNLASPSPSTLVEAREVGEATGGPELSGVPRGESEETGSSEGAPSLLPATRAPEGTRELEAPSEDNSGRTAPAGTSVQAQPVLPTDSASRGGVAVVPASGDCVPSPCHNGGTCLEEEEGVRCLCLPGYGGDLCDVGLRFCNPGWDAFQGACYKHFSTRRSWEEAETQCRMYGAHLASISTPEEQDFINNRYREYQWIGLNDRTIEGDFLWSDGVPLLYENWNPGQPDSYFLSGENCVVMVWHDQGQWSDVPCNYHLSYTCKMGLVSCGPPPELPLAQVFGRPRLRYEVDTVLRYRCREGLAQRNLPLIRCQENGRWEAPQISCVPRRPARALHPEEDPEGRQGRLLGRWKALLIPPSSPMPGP
Procedure: Figure 3 Cytotoxicity of BTP-7-CPT. (a) Western blot showing expression of dg-Bcan in patient-derived GBM-X6 cells, as well as in Bcan-overexpressing HEK cells (HEK-Bcan). (b) Binding kinetics analysis (steady-state) of BTP-7-CPT (red) and unmodified CPT (blue) to recombinant dg-Bcan protein using the ForteBio Octet system. Rmax (maximal response in response unit) and KD (dissociation constant) were calculated using a non-linear regression (one site specific binding) fit using the Graphpad Prism software. (c) Luminescent cell viability (CellTiter-Glo) of GBM-X6 cells treated with BTP-7-CPT (nwells = 3) for 72 h. (d) Luminescent cell viability (CellTiter-Glo) of GS401 recurrent GBM cells treated with BTP-7-CPT (nwells = 3) for 72 h. All IC50 values were measured through the non-linear ‘log(inhibitor) vs. response—variable slope (four parameters)’ fit. […] Statistical significance was calculated using a two-way ANOVA, Sidak’s multiple comparisons test (* p < 0.05, *** p < 0.001, **** p < 0.0001). […]
Infrared spectroscopy (IR). Infrared spectra (IR) were recorded on a Bruker Alpha II FTIR. […]
Then, biosensors were exposed to the analyte (peptide) in working buffer (ranging between 0– 10 µM BTP) for 300 s during the ‘association’ step. […] Binding affinity of each peptide was assessed through steady state analysis, where the response unit was plotted over peptide concentration. […]

[4] = Compound solubility in saline vs pure DMSO (LC-MS of supernatant); assay type: physicochemical; settings: room temperature 5 min, centrifuged, LC-MS EIC
Procedure: Dried powder of each compound was first resuspended in pure DMSO to form a 10 mm stock. Each stock was then diluted in saline (0.9% NaCl) to form an aqueous solution of 100 µm (final DMSO 1% (v/v)) or 1.3 mM (final DMSO 10% (v/v)) of each compound. The samples were incubated at room temperature for 5 min, then centrifuged at 10,000 rcf for 10 min to pellet any precipitates. 5 µL of supernatant was diluted into LC-MS vials containing 100 µL of 50:50 water:acetonitrile with 0.1% TFA additive and analyzed by LC-MS. The presence of soluble compound in each supernatant was determined by quantifying the ion count in the extracted ion chromatogram (EIC) using the MassHunter software. Solubility was measured by comparing the total EIC of the sample diluted in saline vs. in pure DMSO. Each sample was measured in duplicates.
To test the solubility of each compound in aqueous solution, a 10 mm stock of each compound in pure DMSO was diluted in saline solution (0.9% sodium chloride in water) to a final concentration of either 100 µm or 1.3 mm. The samples were incubated at room temperature for 5 min and centrifuged to remove any precipitate. The supernatant was analyzed by liquid chromatography–mass spectrometry (LC-MS). To quantify solubility, the extracted ion count from samples diluted in saline was normalized to samples diluted in pure DMSO.

[5] = Ex vivo serum stability assay, mouse serum; assay type: in vitro ADME; settings: 25% mouse serum, over 12 h
Procedure: Mouse serum was obtained from 8–10-week-old athymic female mice. Mice were euthanized by CO2 asphyxiation with secondary decapitation to ensure death. An incision was made from the neck to the abdomen and the thorax was cut to expose the heart. An amount of 100 µL of heparin was then injected directly into the right atrium to prevent the blood from clotting. A cardiac puncture was performed by piercing the left ventricle with a 21G needle to remove 400–1000 µL of blood. Blood from five mice was collected and combined in a 10-mL centrifuge tube and centrifuged for 5 min at 500 rcf at 4 °C. The top layer containing the serum (opaque) was removed and stored at −20 °C.
To test for serum stability, a 10 mM stock of BTP-7-CPT and Scr-7-CPT was prepared in DMSO. Each compound (1.4 µL) was transferred into a microcentrifuge tube containing 200 µL of PBS with 25% mouse serum, or in PBS alone, and incubated at 37 °C (final concentration 70 μm). […] Samples containing the peptide were eluted with 10 µL of 70% acetonitrile in water containing 0.1% TFA into an LC-MS vial containing 20 µL of water with 0.1% TFA additive and analyzed via LC-MS. The amount of intact compound was determined through quantifying the ion count in the extracted ion chromatogram (EIC) using the MassHunter software. […]

Compound | half-life at 70 µM [1] [h] | stability in mouse serum [2] | remaining at 24 h ([1]; after 24 h of incubation, read-out: peptide still intact) [%] | KD (dissociation constant) [3] | soluble compound present in saline relative to in pure DMSO ([4]; 1.3 mm in saline (0.9% NaCl), 10% DMSO) | soluble compound present in saline relative to in pure DMSO ([4]; 100 µm in saline (0.9% NaCl), 1% DMSO) [%] | stability in mouse serum (detectable compound vs PBS) [5]
CC(C)[C@@H](NC(=O)[C@@H](Cc1c[nH]cn1)NC(=O)CNC(=O)[C@@H](Cc1c[nH]c2ccccc12)NC(=O)[C@@H](CCCCN)NC(=O)[C@H](N)[C@H](C)O)C(=O)N[C@H](CC(N)=O)C(=O)N[C@H](CCCCN)C(=O)NCCCCCC(=O)N[C@@H](CS)C(N)=O [BTP-7-X-Cys] | 0.16 |  |  |  |  |  | 
CC(C)[C@@H](NC(=O)[C@@H](Cc1c[nH]cn1)NC(=O)CNC(=O)[C@@H](Cc1c[nH]c2ccccc12)NC(=O)[C@@H](CCCCN)NC(=O)[C@H](N)[C@H](C)O)C(=O)N[C@H](CC(N)=O)C(=O)N[C@H](CCCCN)C(=O)NCCCCCC(N)=O [BTP-7-X] | 4.4 | stable in mouse serum | ~40 |  |  |  | 
CC[C@@]1(O)C(=O)OCc2c1cc1n(c2=O)Cc2cc3ccccc3nc2-1 [CPT, camptothecin] |  |  |  | did not exhibit any affinity | practically undetectable | 30 | no decline in detectable compound over 12 h
